{"source": "paper PMC3138742", "about": "(PLoS ONE, 2011)", "key": {"[1]": {"system": "SK-OV-3 cells transfected with EGFR siRNA", "experiment": "SRB assay after EGFR siRNA transfection", "format": "cell-based, human", "details": "SK-OV-3, two independent pairs of EGFR siRNAs", "excerpt": "Small interfering RNA (siRNA) against EGFR or ErbB2, as well as control siRNA, were designed and synthesized by Shanghai GenePharma Co. Ltd. One pair of ErbB2 siRNA (sequence: 5′ […] 3′), and two pairs of EGFR siRNA (#1 sequence: 5′ […] 3′; #2 sequence: 5′ […] 3′) were applied in this study. Different kind of siRNA (final concentration: 50 nmol/L) was transfected to SK-OV-3 cells with oligofectamine reagent (Invitrogen) according to the manufacturer's instruction."}, "NCI-H23 cells": {"system": "NCI-H23 cells", "experiment": "Cell proliferation SRB assay", "format": "cell-based", "details": "Homo sapiens, NCI-H23, 72 h, range given for four cell lines together, read-out: IC50 (antiproliferative)", "experimental": "(§1) Cell proliferation was evaluated using the SRB (Sulforhodamine B) assay as previously described. Briefly, cells were seeded into 96-well plates and grown for 24 h. […] The medium remained unchanged until the completion of the experiment. The cells were then fixed with 10% precooled trichloroacetic acid (TCA) for 1 h at 4°C and stained for 15 min at room temperature with 100 μL of 4 mg/mL SRB solution (Sigma) in 1% acetic acid. The SRB was then removed, and the cells were quickly rinsed five times with 1% acetic acid. After cells were air-dried, protein-bound dye was dissolved in 150 μL of 10 mmol/L Tris base for 5 min and measured at 515 nm using a multiwell spectrophotometer (VERSAmax, Molecular Devices). […] The IC50 value was obtained by the Logit method and was determined from the results of at least 3 independent tests."}, "SK-OV-3 cells": {"system": "SK-OV-3 cells", "experiment": "Cell proliferation SRB assay", "format": "cell-based", "details": "Homo sapiens, SK-OV-3, 72 h, range given for four cell lines together, read-out: IC50 (antiproliferative)", "experimental": "as §1"}, "MDA-MB-468 cells": {"system": "MDA-MB-468 cells", "experiment": "Cell proliferation SRB assay", "format": "cell-based", "details": "Homo sapiens, MDA-MB-468, 72 h, range given for four cell lines together, read-out: IC50 (antiproliferative)", "experimental": "as §1"}, "A549 cells": {"system": "A549 cells", "experiment": "Anchorage-independent growth on soft agar", "format": "cell-based, human", "details": "two weeks", "protocol": "The culture was maintained at 37°C in a 5% CO2 atmosphere for two weeks. The average colony number was calculated and colonies were photographed. […] Anchorage-independent cell transformation assay. Cell transformation was detected in SK-OV-3 and A549 cells, respectively. […] The culture were maintained in a 37°C, 5% CO2 incubator for 1-2 weeks, and the cell colonies were scored using a microscope and the Image-Pro PLUS computer software program (Media Cybernetics, Silver Spring, MD)."}}, "data": [{"molecule": "C=CC(=O)Nc1ccc2ncnc(Nc3ccc(OCc4cccc(F)c4)c(Cl)c3)c2c1", "note": "[AST1306]", "values": [{"measurement": "antiproliferative activity after EGFR knockdown", "setting": "[1]", "value": "did not significantly affect"}, {"measurement": "IC50", "setting": "NCI-H23 cells", "value": "6.2 to 7.5", "unit": "µM"}, {"measurement": "IC50", "setting": "SK-OV-3 cells", "value": "6.2 to 7.5", "unit": "µM"}, {"measurement": "IC50", "setting": "MDA-MB-468 cells", "value": "6.2 to 7.5", "unit": "µM"}, {"measurement": "anchorage-independent growth on soft agar", "setting": "A549 cells", "value": "dramatically inhibit the growth"}]}]}
